Measurements: the OligoGym collection
Several values for one entry are separate records, joined by “and”; a condition that tells them apart may be missing. Identical values can stand only once. After the bases stand the sugars from the 5' end (letter, count) and the backbone: PS all phosphorothioate, else s phosphorothioate and o phosphodiester by linkage. Methylation of C is not given here. e = 2'-O-(2-methoxyethyl) (MOE); d = 2'-deoxy (DNA)

Target: DGAT2
Details: ASO

| Sequence | target mRNA inhibition (HepG2, 0.12 µM) | target mRNA inhibition (HepG2, 2.5 µM) | target mRNA inhibition (HepG2, 10 µM) | target mRNA inhibition (HepG2, 20 µM) [%] |
| --- | --- | --- | --- | --- |
| AAACACCAGCCAAGTGAAGT (sugars e5 d10 e5, PS) | 9% | – | – | – |
| ATCACAGAGCTTGGTTCATC (sugars e5 d10 e5, PS) | – | 61% and 44% | 93% and 85% | – |
| TGGCTCTCTAGATAGGGTGG (sugars e5 d10 e5, PS) | – | 84% and 85% | 89% and 87% | – |
| GGAAACTTTCCCACAGTCAG (sugars e5 d10 e5, PS) | – | 69% | 94% | – |
| CCTTAGCTTTAATCCAGGAT (sugars e5 d10 e5, PS) | – | 70% | 89% | – |
| CTATAGAATCAGACAGACCT (sugars e5 d10 e5, PS) | – | 31% | 78% | – |
| CAACAGGCTCTGGTTCCATG (sugars e5 d10 e5, PS) | 56% | – | – | – |
| GCAGCCTGGACAAGTCCTGC (sugars e5 d10 e5, PS) | 70% | – | – | – |
| CCATGTCAGAGAGGCTC (sugars e3 d10 e4, PS) | – | 81% and 76% | – | – |
| GACCCACTGGAGCACTGAGA (sugars e5 d10 e5, PS) | 69% | – | – | – |
| TAATCTGCTGCTCAGAAGGC (sugars e5 d10 e5, PS) | 36% | – | – | – |
| AAGGTAAACTGAGGCCACCA (sugars e5 d10 e5, PS) | 37% | – | – | – |
| CCTCCAGGACCTCAGTCTCC (sugars e5 d10 e5, PS) | 66% | – | – | – |
| TCCAAGTGTACTTTGAGCAT (sugars e5 d10 e5, PS) | – | 58% and 54% | 84% and 91% | – |
| GATGCTCCAGGTGGGCCAGA (sugars e5 d10 e5, PS) | – | 52% | 82% | – |
| GCACTGACATGGTAAGTCCT (sugars e5 d10 e5, PS) | – | 87% and 79% | 93% and 89% | – |
| TCAAACCTAGGTTCAGACTT (sugars e5 d10 e5, PS) | 47% | – | – | – |
| GCTGCATCCATGTCATCAGC (sugars e5 d10 e5, PS) | 43% | – | – | – |
| CTGGTGGTCAGCAGGTTGTG (sugars e5 d10 e5, PS) | 57% | – | – | – |
| AGTAAGCCTCGGTGTCCTCT (sugars e5 d10 e5, PS) | – | 61% and 76% and 75% | 92% and 91% and 95% | – |
| ACCAGGGCCTCCATGTACAT (sugars e2 d13 e5, PS) | 50% | – | – | – |
| CAGATACCTCCAGACATCAG (sugars e5 d10 e5, PS) | 38% | – | – | – |

| Sequence | target mRNA inhibition (HepG2, 0.12 µM) | target mRNA inhibition (HepG2, 2.5 µM) | target mRNA inhibition (HepG2, 10 µM) | target mRNA inhibition (HepG2, 20 µM) [%] |
| --- | --- | --- | --- | --- |
| CCACTGGAGCACTGAGATGA (sugars e5 d10 e5, PS) | 71% | – | – | – |
| CAGCAGGTTGTGTGTCTTCA (sugars e2 d13 e5, PS) | 57% | – | – | – |
| GAAGGCACAGAAAAGTGAGG (sugars e5 d10 e5, PS) | 11% | – | – | – |
| AGAGGTTCAACATCCAATTT (sugars e5 d10 e5, PS) | – | 0% | 86% | – |
| GAGCAGATCTCAAAATCTCG (sugars e5 d10 e5, PS) | – | 72% | 87% | – |
| CCTAGGTACAAGTTTCTCCA (sugars e5 d10 e5, PS) | – | 65% | 87% | – |
| TGGAGCTCAGAGACTCAGCC (sugars e2 d13 e5, PS) | 82% | – | – | – |
| GTTCTTGTCCTGGTCCCAGT (sugars e5 d10 e5, PS) | – | 83% and 68% | 95% and 93% | – |
| ACCATAATCTGCACAGGTTC (sugars e5 d10 e5, PS) | – | 62% | 84% | – |
| CACCAGGGCCTCCATGTACA (sugars e5 d10 e5, PS) | – | 31% | 69% | 26 |
| AGTCACTGACTCACAACAGC (sugars e5 d10 e5, PS) | – | 45% | 83% | – |
| CGTTGGTCTTTTTGGCTGCC (sugars e5 d10 e5, PS) | – | 88% | 81% | – |
| CCAATGCACCTTGTATTAAA (sugars e5 d10 e5, PS) | – | 72% | 92% | – |
| TGCAGGCCCAGCACCAAGGA (sugars e5 d10 e5, PS) | – | 19% | 39% | – |
| TGCCACAGGGCCCTTTCCAG (sugars e5 d10 e5, PS) | – | 11% | 67% | – |
| AGCCCTCCTCGAAGATCACC (sugars e5 d10 e5, PS) | 39% | – | – | – |
| AAAGTCTGACATGGTGC (sugars e3 d10 e4, PS) | – | 48% | 81% | – |
| CCAGTTTCGGACCCACTGTG (sugars e3 d14 e3, PS) | 82% | – | – | – |
| GACAGGACCCACTGGAGCAC (sugars e3 d14 e3, PS) | 58% | – | – | – |
| CCGGACTGAATGTCACC (sugars e3 d10 e4, PS) | – | 79% and 82% | – | – |
| GTGGTTGCAATGTTGCC (sugars e3 d10 e4, PS) | – | 67% and 80% | 88% and 94% | – |
| GAGTAGTCAAAGGTGGCTTC (sugars e5 d10 e5, PS) | – | 66% | 78% | – |

| Sequence | target mRNA inhibition (HepG2, 0.12 µM) | target mRNA inhibition (HepG2, 2.5 µM) | target mRNA inhibition (HepG2, 10 µM) | target mRNA inhibition (HepG2, 20 µM) [%] |
| --- | --- | --- | --- | --- |
| GATGGCACTGCAGGCCACTC (sugars e5 d10 e5, PS) | 28% | – | – | – |
| CAAAGATATAGTTCCTGGTG (sugars e5 d10 e5, PS) | 61% | – | – | – |
| AAAACCAGTTACTCCACCTA (sugars e5 d10 e5, PS) | 0% | – | – | – |
| TGCAGCCTGGACAAGTCCTG (sugars e3 d14 e3, PS) | 77% | 27% | 51% | 68 |
| AACTTCTTCTGGACCCATCG (sugars e5 d10 e5, PS) | 28% | – | – | – |
| AGCTCAGAGACTCAGCCGCA (sugars e2 d13 e5, PS) | 86% | – | – | – |
| CAGGTAAGGCCGTATGCCTG (sugars e2 d13 e5, PS) | 59% | – | – | – |
| TAGGCATGCTTCCTCCCACT (sugars e5 d10 e5, PS) | – | 65% | 84% | – |
| CGCAGGACCCCGGAGTAGGC (sugars e2 d13 e5, PS) | 71% | – | – | – |
| TCTCATTCATCTGGGCCCTG (sugars e5 d10 e5, PS) | – | 65% | 78% | – |
| ACAAAGCCCTTGCGGTTCCG (sugars e5 d10 e5, PS) | 35% | – | – | – |
| TTTGAAATCCAATGCACCTT (sugars e5 d10 e5, PS) | – | 63% | 96% | – |
| CAGCTGGATGGGAAAGTAGT (sugars e5 d10 e5, PS) | 21% | – | – | – |
| TTTAGGCTATGGTCTGAGCA (sugars e5 d10 e5, PS) | – | 68% and 55% | 85% and 78% | – |
| CTGGAACTTCTTCTGGACCC (sugars e5 d10 e5, PS) | 25% | – | – | – |
| TATAATTTCTTTTAAATAAC (sugars e5 d10 e5, PS) | 0% | – | – | – |
| GTACACTTCATTCTCTCCAA (sugars e5 d10 e5, PS) | 82% | – | – | – |
| AGTAGTCTCGAAAGTAGCGC (sugars e5 d10 e5, PS) | 39% | – | – | – |
| TTGCTCAGTTCTTCCAACCA (sugars e5 d10 e5, PS) | – | 81% and 72% | 93% and 94% | – |
| CTTCACCAGCTGGATGGGAA (sugars e5 d10 e5, PS) | 36% | – | – | – |
| TCTCATTTCTTATCTTCAAT (sugars e5 d10 e5, PS) | – | 60% and 72% | 88% and 93% | – |
| AAGCCTCGGTGTCCTCT (sugars e3 d10 e4, PS) | – | 56% and 70% | 87% and 90% | – |

| Sequence | target mRNA inhibition (HepG2, 0.12 µM) | target mRNA inhibition (HepG2, 2.5 µM) | target mRNA inhibition (HepG2, 10 µM) | target mRNA inhibition (HepG2, 20 µM) [%] |
| --- | --- | --- | --- | --- |
| CTGCAGGCCACTCCCAGTAC (sugars e5 d10 e5, PS) | 40% | – | – | – |
| GGACCCACTGGAGCACTGAG (sugars e3 d14 e3, PS) | 82% | 29% | 42% | 71 |
| TCATACTAGACTATGCAGCC (sugars e5 d10 e5, PS) | – | 72% | 85% | – |
| GTCTGGGAACAGCAGCATCA (sugars e5 d10 e5, PS) | – | 72% | 89% | – |
| GCGATTCACTGAGGACC (sugars e3 d10 e4, PS) | – | – | 68% and 86% | – |
| CCATGTCAGAGAGGCTCAGC (sugars e5 d10 e5, PS) | – | 45% | 86% | – |
| GCAGATGGACAGGTGATTCT (sugars e5 d10 e5, PS) | – | 69% | 91% | – |
| GTCAGCAGGTTGTGTGTCTT (sugars e5 d10 e5, PS) | 64% and 59% | 30% | 76% | 93 |
| CAGGCAGGTGTCAGAGGGCT (sugars e5 d10 e5, PS) | 21% | – | – | – |
| ATTCATCTTTCCAGATCCGG (sugars e5 d10 e5, PS) | – | 92% | 88% | – |
| GGCCAAGGACAGAGGTTCAA (sugars e5 d10 e5, PS) | – | 60% | 87% | – |
| GAGCTCTCAAGTCTTCC (sugars e3 d10 e4, PS) | – | 55% and 64% | 86% and 87% | – |
| AGGCATGCTTCCTCCCACTT (sugars e5 d10 e5, PS) | – | 53% | 85% | – |
| AAAAGGAGTTTGTGTTTCCC (sugars e5 d10 e5, PS) | – | 84% and 86% | 92% and 95% | – |
| TGGTGGTCAGCAGGTTGTGT (sugars e5 d10 e5, PS) | 51% | – | – | – |
| CACAGTCATCTTGTGTACAT (sugars e5 d10 e5, PS) | – | 74% and 76% | 92% and 93% | – |
| CATTGCCACTCCCATTCTTT (sugars e2 d13 e5, PS) | 40% | – | – | – |
| TGTGACCTTGGGATAGTCCC (sugars e5 d10 e5, PS) | – | 63% | 87% | – |
| ATCCATGTCATCAGCCACCC (sugars e5 d10 e5, PS) | – | 61% and 63% | 86% and 80% | – |
| GCACCATTTTCACAAGGAGA (sugars e5 d10 e5, PS) | – | 79% and 72% | 85% and 81% | – |
| CAGGTAAGGCCGTATGCCTG (sugars e3 d14 e3, PS) | 72% | – | – | – |
| GTAAGCCTCGGTGTCCTCTC (sugars e5 d10 e5, PS) | – | 91% | 85% | – |
